Data published in paper PMC6941357, “An in vitro toolbox to accelerate anti-malarial drug discovery and development” (Malaria Journal, 2020).

Assays:
[1] = Ionization constants by potentiometric titration; type: physicochemical; settings: basic pKa (B), mean ± SD, n = 3 titrations
Method in brief: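 Glass electrode calibrated at pH 2, 4, 7 and 10; reagents standardized against potassium hydrogen phthalate, titrants protected from CO2. Samples diluted 1:10 with water in the titration vessel, typical final compound concentration 0.5 mM.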

human plasma [2] = experiment: Plasma protein binding via ultracentrifugation (UC); type: in vitro ADME; settings: ultracentrifugation, neat plasma
Method in brief: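 Pooled human plasma (3–4 donors) spiked and ultracentrifuged; protein-free supernate gave Cunbound, parallel tubes kept at 37 °C gave Ctotal and stability (start vs end). Samples matrix-matched 1:1 with opposite blank and quantified against a common calibration curve; fu SD by error propagation.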

human plasma [3] = experiment: Plasma protein binding via rapid equilibrium dialysis (RED), 10% plasma; type: in vitro ADME; settings: RED, 10% plasma corrected for dilution, 6 h dialysis
Method in brief: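 Pooled human plasma (3–4 donors) was diluted 1:10 in pH 7.4 phosphate buffer with 0.04 M NaCl, spiked to ~1000–3000 ng/mL total, and dialysed in RED units at 37 °C with shaking. Devices were pre-conditioned with compound in buffer. Neat-plasma fu was back-calculated from 10% plasma Ctotal and Cunbound (mean of n = 3–4).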

10% FCS in DMEM = experiment: Binding in DMEM with 10% FCS via ultracentrifugation; type: in vitro ADME, calf
Method: Dulbecco’s Modified Eagle’s Medium (DMEM) containing GlutaMAX-I was purchased from Invitrogen (Thermo Fisher Scientific) and stored at 4 °C. Medium was prepared by adding heat inactivated foetal calf serum (FCS, final 10% v/v), penicillin (final 100 U/mL), streptomycin (final 100 µg/mL) D-glucose (final 4.0 mg/mL) and sodium pyruvate (final 0.1 mg/mL).
An ultracentrifugation method adapted from a previous publication was initially used to assess plasma protein binding and binding in the other media. […] Additional ultracentrifuge tubes containing spiked matrix were maintained at 37 °C, 5% or 10% CO2 or normal atmosphere conditions, with aliquots being taken within 0.5 h of the start and at the end of ultracentrifugation to serve as controls for the assessment of stability and to obtain a measure of the total concentration (Ctotal). Following ultracentrifugation, the pH was checked and an aliquot of protein-free supernate was taken from each ultracentrifuge tube for determination of the unbound concentration (Cunbound).
Total matrix and protein free samples were analysed using a matrix matching approach whereby each sample was mixed in a 1:1 ratio with the opposite blank medium (i.e. blank total matrix or blank protein free buffer). For example, plasma samples were mixed with blank pH 7.4 buffer whereas plasma supernatant samples were mixed with blank plasma. Each of the sample sets were then assayed against a common calibration curve prepared in a 1:1 mixture of total matrix and protein free pH 7.4 buffer. […] The standard deviation for fu was calculated using the propagation of errors approach as described previously. The potential for compound degradation was assessed by comparing the average value for Ctotal at the start and end of the experiment.

[4] = Blood to plasma partitioning; type: in vitro ADME, human; settings: human whole blood, 37 °C
Method: Human whole blood was collected and supplied by the Volunteer Blood Donor Registry (Clinical Translation Centre, Walter & Eliza Hall Institute of Medical Research, Parkville, Australia) and used on the day of collection. The haematocrit (Hct) was determined by centrifugation (13,000×g for 3 min using Clemets® Microhaematocrit centrifuge and Safecap® Plain Self-sealing Mylar wrapped capillary tubes) to ensure it was between 0.40 and 0.48. An aliquot was centrifuged (Heraeus, Multifuge 3 S-R; 4500×g) for 10 min to obtain plasma required for matrix matching purposes as described below.
Two aliquots of the spiked whole blood were transferred to fresh microcentrifuge tubes and maintained at 37 °C/5% CO2 in a humidified incubator. The pH was confirmed to be 7.4 ± 0.1 at the start and end of the incubation. At each time point (30 min and 4 h), one whole blood tube was removed from the incubator and mixed by gentle inversion, after which four replicate blood samples were taken and matrix matched with an equal volume of blank plasma. The remainder of the blood sample was centrifuged (Eppendorf, Mini Spin plus; 6700×g) for 2 min for the collection of 4 replicate plasma samples which were similarly matrix matched with an equal volume of blank whole blood. The 1:1 mixtures of blood/plasma were mixed, snap frozen in dry ice and stored at − 80 °C until analysis by LC–MS (Additional file 1: Table S2) against calibration standards prepared in the same mixed matrix. Any further distribution of compound into RBCs at this stage was irrelevant as the cells were lysed during the sample preparation and the total concentration in the mixed matrix was measured for both the calibration standards and samples.
The apparent whole blood-to-plasma partitioning ratio (B/P) was calculated as the ratio of the average concentration in the blood sample to that in the plasma fraction of the same whole blood sample. A standard deviation (SD) for each B/P value was calculated using the propagation of errors approach as described previously.

Caco-2 cell monolayers = settings: matrix: pH 7.4 buffer; ref 31 (quinine), 78 (DSM421); cited from earlier work
CYP3A4 = CYP3A4 (Homo sapiens, UniProt P08684); set-up: from tissue; host or cells: human liver microsomes; settings: human liver microsomes, CYP3A4 (test), cited from earlier work
CYP3A4, sequence (P08684 whole entry): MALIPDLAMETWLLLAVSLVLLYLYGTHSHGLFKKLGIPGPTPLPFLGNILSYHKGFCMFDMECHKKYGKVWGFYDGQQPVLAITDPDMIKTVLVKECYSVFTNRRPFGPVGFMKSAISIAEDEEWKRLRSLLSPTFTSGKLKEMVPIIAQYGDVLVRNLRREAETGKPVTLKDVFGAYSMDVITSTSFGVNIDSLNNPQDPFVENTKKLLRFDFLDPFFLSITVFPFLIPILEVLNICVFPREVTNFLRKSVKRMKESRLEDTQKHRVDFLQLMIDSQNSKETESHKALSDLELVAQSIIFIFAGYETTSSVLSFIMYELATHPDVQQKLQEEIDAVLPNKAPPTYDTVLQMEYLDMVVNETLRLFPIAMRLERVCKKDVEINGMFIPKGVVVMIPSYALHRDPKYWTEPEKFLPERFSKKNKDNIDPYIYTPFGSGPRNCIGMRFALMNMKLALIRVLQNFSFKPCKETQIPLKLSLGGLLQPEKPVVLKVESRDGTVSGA

Structure (SMILES): Cc1cc(Nc2ccc(C(F)(F)F)nc2)n2nc(C(C)(F)F)nc2n1 [DSM421]
- Measured pKa [1]: no ionizations could be detected
- Fraction unbound, human plasma (human plasma [2]): 0.039 ± 0.007
- Fraction unbound, human plasma (human plasma [3]): 0.035 (0.0044)
- Fraction unbound, 10% FCS in DMEM (10% FCS in DMEM): 0.615 ± 0.043
- B/P (whole blood to plasma partitioning ratio) [4]: 0.53 ± 0.03
- A–B Papp (Caco-2 cell monolayers): 33 ± 2.5 10^−6 cm/s
- B–A Papp (Caco-2 cell monolayers): 46 10^−6 cm/s
- efflux ratio (Caco-2 cell monolayers): 1.4
- CYP3A4 (test) % inhibition at max conc (CYP3A4; nmi = no measurable inhibition): nmi
- IC50 (CYP3A4; read-out: CYP3A4 (test) IC50): > 20 µM
